From US11040101B2, “Nanoparticles for cancer therapy and diagnosis” (UCL BUSINESS PLC, priority 2019, dated 2021)

Biological target: cathepsin B (Homo sapiens, UniProt P07858)
Test: Time-dependent fluorescence emission of ICG systems with or without cathepsin B
Type: biochemical
Settings: after 24 h at 37° C. in PBS
Procedure: The equivalent ICG concentration in all systems was 6 μg/mL. Fluorescence emission spectra of these systems were acquired over the course of 48 h. The excitation wavelength of 740 nm was used to obtain the fluorescence spectra. For the afore-mentioned experiments, spectra and fluorescence intensities were obtained using a CLARIOstar® High Performance Monochromator Multimode microplate reader (BMG LABTECH, UK).

- fluorescence emission of free ICG: suppressed
SMILES: CC1(C)C(/C=C/C=C/C=C/C=C2\N(CCCCS(=O)(=O)O)c3ccc4ccccc4c3C2(C)C)=[N+](CCCCS(=O)(=O)[O-])c2ccc3ccccc3c21 [free ICG, Indocyanine green]
